Biological target: T1, IC-GPCR2 (Homo sapiens, UniProt Q8TDV5, S309L)
T1 construct: expressed in transfected cells
T1 sequence (Q8TDV5 1-335 S309L): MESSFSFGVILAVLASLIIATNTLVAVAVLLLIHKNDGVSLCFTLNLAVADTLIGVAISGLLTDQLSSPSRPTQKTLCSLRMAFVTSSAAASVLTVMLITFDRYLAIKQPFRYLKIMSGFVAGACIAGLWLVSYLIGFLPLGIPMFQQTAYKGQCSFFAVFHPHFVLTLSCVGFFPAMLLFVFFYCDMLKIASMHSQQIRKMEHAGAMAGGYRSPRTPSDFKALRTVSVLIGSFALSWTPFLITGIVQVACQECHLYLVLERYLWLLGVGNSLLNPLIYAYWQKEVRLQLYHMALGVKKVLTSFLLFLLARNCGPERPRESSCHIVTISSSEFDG
Assay: Stimulation of cAMP in CHO cells stably expressing IC-GPCR2 (HTRF cAMP assay)
Format: cell-based
Design: key to Activity at 10 uM: *: no activity observed when tested at 10 micromolar but no higher concentrations were tested
Conditions: for activation at 10 µM: 0.5 h, 30 minutes, IC-GPCR2 stably expressing CHO cells, read-out: Activity at 10 uM (% change in FRET signal from DMSO control)
Outline: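 CHO cells stably expressing IC-GPCR2, plated at 17500 cells/well, treated next day for 30 min in Ham's F12 with compounds at 6–8 concentrations from 0.00003 to 10 μM; parental CHO cells also screened. Intracellular cAMP read by HTRF competitive immunoassay (665/620 nm ratio). Activity given as % FRET change from DMSO control.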

SMILES	activation at 10 µM [%]	Activity at 10 uM (symbol entry)
Fc1cc(-n2cnnn2)ccc1OCc1csc(C2CCN(c3ncc(C(F)(F)F)cn3)CC2)n1 [Example 171, 2-{4-[4-(2-Fluoro-4-tetrazol-1-yl-phenoxymethyl)-thiazol-2-yl]-piperidin-1-yl}-5-trifluoromethyl-pyrimidine]	76	
COC(=O)c1cc(C)nc(N2CCC(c3nc(COc4ccc(-n5cnnn5)cc4)cs3)CC2)n1 [Example 173, 6-Methyl-2-{4-[4-(4-tetrazol-1-yl-phenoxymethyl)-thiazol-2-yl]-piperidin-1-yl}-pyrimidine-4-carboxylic acid methyl ester]	75	
Cc1cc(C(=O)O)nc(N2CCC(c3nc(COc4ccc(-n5cnnn5)cc4)cs3)CC2)n1 [Example 176, 6-Methyl-2-{4-[4-(4-tetrazol-1-yl-phenoxymethyl)-thiazol-2-yl]-piperidin-1-yl}-pyrimidine-4-carboxylic acid]	43	
Fc1ccnc(N2CCC(c3nc(COc4ccc(-n5cnnn5)cc4)cs3)CC2)n1 [Example 178, 4-Fluoro-2-{4-[4-(4-tetrazol-1-yl-phenoxymethyl)-thiazol-2-yl]-piperidin-1-yl}-pyrimidine]	39	
CCOC(=O)c1cnc(N2CCC(c3nc(COc4ccc(-n5cnnn5)cc4)cs3)CC2)s1 [Example 180, 2-{4-[4-(4-Tetrazol-1-yl-phenoxymethyl)-thiazol-2-yl]-piperidin-1-yl}-thiazole-5-carboxylic acid ethyl ester]	59	
CCc1cnc(N2CCC(c3nc(COc4ccc(-n5cnnn5)nc4)cs3)CC2)nc1 [Example 182, 5-Ethyl-2-{4-[4-(6-tetrazol-1-yl-pyridin-3-yloxymethyl)-thiazol-2-yl]-piperidin-1-yl}-pyrimidine]	78	
Cc1cnc(N2CCC(c3nc(COc4ccc(-n5cnnn5)nc4)cs3)CC2)nc1 [Example 183, 5-Methyl-2-{4-[4-(6-tetrazol-1-yl-pyridin-3-yloxymethyl)-thiazol-2-yl]-piperidin-1-yl}-pyrimidine]	78	
Clc1cnc(N2CCC(c3nc(COc4ccc(-n5cnnn5)nc4)cs3)CC2)nc1 [Example 184, 5-Chloro-2-{4-[4-(6-tetrazol-1-yl-pyridin-3-yloxymethyl)-thiazol-2-yl]-piperidin-1-yl}-pyrimidine]	69	
FC(F)(F)c1cnc(N2CCC(c3nc(COc4ccc(-n5cnnn5)nc4)cs3)CC2)nc1 [Example 185, 2-{4-[4-(6-Tetrazol-1-yl-pyridin-3-yloxymethyl)-thiazol-2-yl]-piperidin-1-yl}-5-trifluoromethyl-pyrimidine]	83	
Clc1ccc(N2CCC(c3nc(COc4ccc(-n5cnnn5)cc4)cs3)CC2)nn1 [Example 186, 3-Chloro-6-{4-[4-(4-tetrazol-1-yl-phenoxymethyl)-thiazol-2-yl]-piperidin-1-yl}-pyridazine]	80	
c1cc(-n2cnnn2)ccc1OCc1csc(C2CCN(c3cnc(-n4cnnn4)cn3)CC2)n1 [Example 187, 2-Tetrazol-1-yl-5-{4-[4-(4-tetrazol-1-yl-phenoxymethyl)-thiazol-2-yl]-piperidin-1-yl}-pyrazine]	75	
CCc1cnc(N2CCC(c3nc(CNc4ccc(F)nc4)cs3)CC2)nc1 [Example 188, {2-[1-(5-Ethyl-pyrimidin-2-yl)-piperidin-4-yl]-thiazol-4-ylmethyl}-(6-fluoro-pyridin-3-yl)-amine]	69	
CCc1cnc(N2CCC(c3nc(COc4c(F)cc(S(C)(=O)=O)cc4F)cs3)CC2)nc1 [Example 189, 2-{4-[4-(2,6-Difluoro-4-methanesulfonyl-phenoxymethyl)-thiazol-2-yl]-piperidin-1-yl}-5-ethyl-pyrimidine]	76	
CCCCc1cnc(N2CCC(c3nc(COc4ccc(-n5cnnn5)cc4)cs3)CC2)nc1 [Example 190, 5-Butyl-2-{4-[4-(4-tetrazol-1-yl-phenoxymethyl)-thiazol-2-yl]-piperidin-1-yl}-pyrimidine]	77	
CCc1cnc(N2CCC(c3nc(COc4ccc(N5CCOCC5)cc4)cs3)CC2)nc1 [Example 191, 4-(4-{2-[1-(5-Ethyl-pyrimidin-2-yl)-piperidin-4-yl]-thiazol-4-ylmethoxy}-phenyl)-morpholine]	74	
O=[N+]([O-])c1cnc(N2CCC(c3nc(COc4ccc(-n5cnnn5)cc4)cs3)CC2)nc1 [Example 192, 5-Nitro-2-{4-[4-(4-tetrazol-1-yl-phenoxymethyl)-thiazol-2-yl]-piperidin-1-yl}-pyrimidine]	74	
FC(F)(F)c1cnc(N2CCC(c3nc(COc4ccc(-n5cnnn5)cc4)cs3)CC2)c(Cl)c1 [Example 193, 3′-Chloro-4-[4-(4-tetrazol-1-yl-phenoxymethyl)-thiazol-2-yl]-5′-trifluoromethyl-3,4,5,6-tetrahydro-2H-[1,2′]bipyridinyl]	35	
Fc1cc(-n2cnnn2)ccc1OCc1csc(C2CCN(c3ncc(C(F)(F)F)cc3Cl)CC2)n1 [Example 194, 3′-Chloro-4-[4-(2-fluoro-4-tetrazol-1-yl-phenoxymethyl)-thiazol-2-yl]-5′-trifluoromethyl-3,4,5,6-tetrahydro-2H-[1,2′]bipyridinyl]	29	
Fc1cc(-n2cnnn2)ccc1OCc1csc(C2CCN(c3ncc(Cl)cn3)CC2)n1 [Example 195, 5-Chloro-2-{4-[4-(2-fluoro-4-tetrazol-1-yl-phenoxymethyl)-thiazol-2-yl]-piperidin-1-yl}-pyrimidine]	68	
Clc1cnc(N2CCC(c3nc(COc4ccc(-n5cnnn5)cc4)cs3)CC2)c(Cl)c1 [Example 196, 3′,5′-Dichloro-4-[4-(4-tetrazol-1-yl-phenoxymethyl)-thiazol-2-yl]-3,4,5,6-tetrahydro-2H-[1,2′]bipyridinyl]	19	
CCOC(=O)c1cnc(N2CCC(c3nc(COc4ccc(-n5cnnn5)cc4)cs3)CC2)c(Cl)c1 [Example 197, 3′-Chloro-4-[4-(4-tetrazol-1-yl-phenoxymethyl)-thiazol-2-yl]-3,4,5,6-tetrahydro-2H-[1,2′]bipyridinyl-5′-carboxylic acid ethyl ester]		*
COC(=O)c1cc(Cl)cnc1N1CCC(c2nc(COc3ccc(-n4cnnn4)cc3)cs2)CC1 [Example 198, 5′-Chloro-4-[4-(4-tetrazol-1-yl-phenoxymethyl)-thiazol-2-yl]-3,4,5,6-tetrahydro-2H-[1,2′]bipyridinyl-3′-carboxylic acid methyl ester]	15	
CCc1cnc(N2CCC(c3nc(COCc4ccc(S(C)(=O)=O)cc4)cs3)CC2)nc1 [Example 203, 5-Ethyl-2-{4-[4-(4-methanesulfonyl-benzyloxymethyl)-thiazol-2-yl]-piperidin-1-yl}-pyrimidine]	76	
FC(F)(F)c1cnc(N2CCC(c3nc(COc4ccc(-n5cnnn5)cc4)cs3)CC2)nc1 [Example 205]	75	

Reference: patent US9925189B2, “Heterocyclic receptor agonists for the treatment of diabetes and metabolic disorders” (CymaBay Therapeutics, Inc., priority 2006, dated 2018)
